ChEMBL document CHEMBL4020788, “Synthesis, SAR and molecular docking studies of benzo[d]thiazole-hydrazones as potential antibacterial and antifungal agents” (2017)
Converted amounts (≈) assume the structure as drawn. The source made the active and inactive calls. The rule behind the calls is not given here.

Key:
Assay type in all cases: functional
Staphylococcus aureus [1] = assay: Antibacterial activity against Staphylococcus aureus at 25 ug/ml after 24 hrs by agar well diffusion method; conditions: read-out: DIZ
Staphylococcus aureus [2] = assay: Antibacterial activity against Staphylococcus aureus at 50 ug/ml after 24 hrs by agar well diffusion method; conditions: read-out: DIZ
Staphylococcus aureus [3] = assay: Antibacterial activity against Staphylococcus aureus at 75 ug/ml after 24 hrs by agar well diffusion method; conditions: read-out: DIZ
Staphylococcus aureus [4] = assay: Antibacterial activity against Staphylococcus aureus at 100 ug/ml after 24 hrs by agar well diffusion method; conditions: read-out: DIZ
Bacillus subtilis [5] = assay: Antibacterial activity against Bacillus subtilis at 25 ug/ml after 24 hrs by agar well diffusion method; conditions: read-out: DIZ
Bacillus subtilis [6] = assay: Antibacterial activity against Bacillus subtilis at 50 ug/ml after 24 hrs by agar well diffusion method; conditions: read-out: DIZ
Bacillus subtilis [7] = assay: Antibacterial activity against Bacillus subtilis at 75 ug/ml after 24 hrs by agar well diffusion method; conditions: read-out: DIZ
Bacillus subtilis [8] = assay: Antibacterial activity against Bacillus subtilis at 100 ug/ml after 24 hrs by agar well diffusion method; conditions: read-out: DIZ
Escherichia coli [9] = assay: Antibacterial activity against Escherichia coli at 25 ug/ml after 24 hrs by agar well diffusion method; conditions: for zone of inhibition at 25 µg/mL: read-out: DIZ
Escherichia coli [10] = assay: Antibacterial activity against Escherichia coli at 50 ug/ml after 24 hrs by agar well diffusion method; conditions: for zone of inhibition at 50 µg/mL: read-out: DIZ
Escherichia coli [11] = assay: Antibacterial activity against Escherichia coli at 75 ug/ml after 24 hrs by agar well diffusion method; conditions: for zone of inhibition at 75 µg/mL: read-out: DIZ
Escherichia coli [12] = assay: Antibacterial activity against Escherichia coli at 100 ug/ml after 24 hrs by agar well diffusion method; conditions: for zone of inhibition at 100 µg/mL: read-out: DIZ
Klebsiella pneumoniae [13] = assay: Antibacterial activity against Klebsiella pneumoniae at 25 ug/ml after 24 hrs by agar well diffusion method; conditions: for zone of inhibition at 25 µg/mL: read-out: DIZ
Klebsiella pneumoniae [14] = assay: Antibacterial activity against Klebsiella pneumoniae at 50 ug/ml after 24 hrs by agar well diffusion method; conditions: for zone of inhibition at 50 µg/mL: read-out: DIZ
Klebsiella pneumoniae [15] = assay: Antibacterial activity against Klebsiella pneumoniae at 75 ug/ml after 24 hrs by agar well diffusion method; conditions: for zone of inhibition at 75 µg/mL: read-out: DIZ
Klebsiella pneumoniae [16] = assay: Antibacterial activity against Klebsiella pneumoniae at 100 ug/ml after 24 hrs by agar well diffusion method; conditions: for zone of inhibition at 100 µg/mL: read-out: DIZ
Staphylococcus aureus [17] = assay: Antibacterial activity against methicillin resistant Staphylococcus aureus MRSA090 at 25 ug/ml after 24 hrs by agar well diffusion method; conditions: MRSA090, 24 h, read-out: DIZ
Staphylococcus aureus [18] = assay: Antibacterial activity against methicillin resistant Staphylococcus aureus MRSA090 at 50 ug/ml after 24 hrs by agar well diffusion method; conditions: MRSA090, 24 h, read-out: DIZ
Staphylococcus aureus [19] = assay: Antibacterial activity against methicillin resistant Staphylococcus aureus MRSA090 at 75 ug/ml after 24 hrs by agar well diffusion method; conditions: MRSA090, 24 h, read-out: DIZ
Staphylococcus aureus [20] = assay: Antibacterial activity against methicillin resistant Staphylococcus aureus MRSA090 at 100 ug/ml after 24 hrs by agar well diffusion method; conditions: MRSA090, 24 h, read-out: DIZ
Aspergillus niger [21] = assay: Antifungal activity against Aspergillus niger at 25 ug/ml after 48 hrs by agar well diffusion method; conditions: read-out: DIZ
Aspergillus niger [22] = assay: Antifungal activity against Aspergillus niger at 50 ug/ml after 48 hrs by agar well diffusion method; conditions: read-out: DIZ
Aspergillus niger [23] = assay: Antifungal activity against Aspergillus niger at 75 ug/ml after 48 hrs by agar well diffusion method; conditions: read-out: DIZ
Aspergillus niger [24] = assay: Antifungal activity against Aspergillus niger at 100 ug/ml after 48 hrs by agar well diffusion method; conditions: read-out: DIZ
Fusarium verticillioides [25] = assay: Antifungal activity against Fusarium moniliforme at 25 ug/ml after 48 hrs by agar well diffusion method; conditions: read-out: DIZ
Fusarium verticillioides [26] = assay: Antifungal activity against Fusarium moniliforme at 50 ug/ml after 48 hrs by agar well diffusion method; conditions: read-out: DIZ
Fusarium verticillioides [27] = assay: Antifungal activity against Fusarium moniliforme at 75 ug/ml after 48 hrs by agar well diffusion method; conditions: read-out: DIZ
Fusarium verticillioides [28] = assay: Antifungal activity against Fusarium moniliforme at 100 ug/ml after 48 hrs by agar well diffusion method; conditions: read-out: DIZ
Fusarium oxysporum [29] = assay: Antifungal activity against Fusarium oxysporum at 25 ug/ml after 48 hrs by agar well diffusion method; conditions: read-out: DIZ
Fusarium oxysporum [30] = assay: Antifungal activity against Fusarium oxysporum at 50 ug/ml after 48 hrs by agar well diffusion method; conditions: read-out: DIZ
Fusarium oxysporum [31] = assay: Antifungal activity against Fusarium oxysporum at 75 ug/ml after 48 hrs by agar well diffusion method; conditions: read-out: DIZ
Fusarium oxysporum [32] = assay: Antifungal activity against Fusarium oxysporum at 100 ug/ml after 48 hrs by agar well diffusion method; conditions: read-out: DIZ
Klebsiella pneumoniae [33] = assay: Antibacterial activity against Klebsiella pneumoniae incubated for overnight by microdilution method
Staphylococcus aureus [34] = assay: Antibacterial activity against Staphylococcus aureus incubated for overnight by microdilution method
Bacillus subtilis [35] = assay: Antibacterial activity against Bacillus subtilis incubated for overnight by microdilution method
Escherichia coli [36] = assay: Antibacterial activity against Escherichia coli incubated for overnight by microdilution method
Aspergillus niger [37] = assay: Antifungal activity against Aspergillus niger after 48 to 72 hrs by microdilution method
Fusarium verticillioides [38] = assay: Antifungal activity against Fusarium moniliforme after 48 to 72 hrs by microdilution method
Fusarium oxysporum [39] = assay: Antifungal activity against Fusarium oxysporum after 48 to 72 hrs by microdilution method

Row | SMILES | zone of inhibition at 25 µg/mL (Staphylococcus aureus [1]) [mm] | zone of inhibition at 50 µg/mL (Staphylococcus aureus [2]) [mm] | zone of inhibition at 75 µg/mL (Staphylococcus aureus [3]) [mm] | zone of inhibition at 100 µg/mL (Staphylococcus aureus [4]) [mm] | zone of inhibition at 25 µg/mL (Bacillus subtilis [5]) [mm] | zone of inhibition at 50 µg/mL (Bacillus subtilis [6]) [mm] | zone of inhibition at 75 µg/mL (Bacillus subtilis [7]) [mm] | zone of inhibition at 100 µg/mL (Bacillus subtilis [8]) [mm] | zone of inhibition at 25 µg/mL (Staphylococcus aureus [17]) [mm] | zone of inhibition at 50 µg/mL (Staphylococcus aureus [18]) [mm] | zone of inhibition at 75 µg/mL (Staphylococcus aureus [19]) [mm] | zone of inhibition at 100 µg/mL (Staphylococcus aureus [20]) [mm] | zone of inhibition at 25 µg/mL (Aspergillus niger [21]) [mm] | zone of inhibition at 50 µg/mL (Aspergillus niger [22]) [mm] | zone of inhibition at 75 µg/mL (Aspergillus niger [23]) [mm] | zone of inhibition at 100 µg/mL (Aspergillus niger [24]) [mm] | zone of inhibition at 25 µg/mL (Fusarium verticillioides [25]) [mm] | zone of inhibition at 50 µg/mL (Fusarium verticillioides [26]) [mm] | zone of inhibition at 75 µg/mL (Fusarium verticillioides [27]) [mm] | zone of inhibition at 100 µg/mL (Fusarium verticillioides [28]) [mm] | also measured
1 | Cc1cccc2nc(N/N=C/c3ccc(Br)cc3Br)sc12 | 11 | 15 | 18 | 21 | 13 | 17 | 24 | 27 | 8 | 12 | 15 | 17 | 24 | 29 | 36 | 40 | 21 | 27 | 32 | 41 | zone of inhibition at 25 µg/mL (Escherichia coli [9]): 5 mm; zone of inhibition at 50 µg/mL (Escherichia coli [10]): 8 mm; zone of inhibition at 75 µg/mL (Escherichia coli [11]): 12 mm; zone of inhibition at 100 µg/mL (Escherichia coli [12]): 16 mm; zone of inhibition at 25 µg/mL (Klebsiella pneumoniae [13]): 8 mm; zone of inhibition at 50 µg/mL (Klebsiella pneumoniae [14]): 11 mm; zone of inhibition at 75 µg/mL (Klebsiella pneumoniae [15]): 15 mm; zone of inhibition at 100 µg/mL (Klebsiella pneumoniae [16]): 20 mm; zone of inhibition at 25 µg/mL (Fusarium oxysporum [29]): 16 mm; zone of inhibition at 50 µg/mL (Fusarium oxysporum [30]): 24 mm; zone of inhibition at 75 µg/mL (Fusarium oxysporum [31]): 30 mm; zone of inhibition at 100 µg/mL (Fusarium oxysporum [32]): 38 mm; MIC (Klebsiella pneumoniae [33]): 20 µg/mL (≈ 47 µM); MIC (Staphylococcus aureus [34]): 28 µg/mL (≈ 65.9 µM); MIC (Bacillus subtilis [35]): 28 µg/mL (≈ 65.9 µM); MIC (Escherichia coli [36]): 24 µg/mL (≈ 56.5 µM); MIC (Aspergillus niger [37]): 20 µg/mL (≈ 47 µM); MIC (Fusarium verticillioides [38]): 18 µg/mL (≈ 42.3 µM); MIC (Fusarium oxysporum [39]): 16 µg/mL (≈ 37.6 µM)
2 | Cc1cccc2nc(N/N=C/c3ccc(Cl)cc3Cl)sc12 | 4 | 12 | 16 | 20 | 4 | 9 | 13 | 16 | 5 | 8 | 13 | 16 | 20 | 24 | 29 | 33 | 17 | 21 | 28 | 32 | diameter of the inhibition zone (DIZ) (Escherichia coli [9]): inactive; diameter of the inhibition zone (DIZ) (Escherichia coli [10]): inactive; diameter of the inhibition zone (DIZ) (Escherichia coli [11]): inactive; diameter of the inhibition zone (DIZ) (Escherichia coli [12]): inactive; zone of inhibition at 25 µg/mL (Klebsiella pneumoniae [13]): 10 mm; zone of inhibition at 50 µg/mL (Klebsiella pneumoniae [14]): 15 mm; zone of inhibition at 75 µg/mL (Klebsiella pneumoniae [15]): 19 mm; zone of inhibition at 100 µg/mL (Klebsiella pneumoniae [16]): 22 mm; zone of inhibition at 25 µg/mL (Fusarium oxysporum [29]): 18 mm; zone of inhibition at 50 µg/mL (Fusarium oxysporum [30]): 22 mm; zone of inhibition at 75 µg/mL (Fusarium oxysporum [31]): 27 mm; zone of inhibition at 100 µg/mL (Fusarium oxysporum [32]): 31 mm; MIC (Aspergillus niger [37]): 25 µg/mL (≈ 74.4 µM); MIC (Fusarium verticillioides [38]): 28 µg/mL (≈ 83.3 µM); MIC (Fusarium oxysporum [39]): 26 µg/mL (≈ 77.3 µM)
3 | Cc1cccc2nc(N/N=C/c3ccc([N+](=O)[O-])cc3[N+](=O)[O-])sc12 | 6 | 9 | 13 | 19 | 3 | 7 | 12 | 16 | 8 | 13 | 16 | 18 | 21 | 24 | 29 | 32 | 20 | 24 | 30 | 36 | zone of inhibition at 25 µg/mL (Escherichia coli [9]): 8 mm; zone of inhibition at 50 µg/mL (Escherichia coli [10]): 13 mm; zone of inhibition at 75 µg/mL (Escherichia coli [11]): 15 mm; zone of inhibition at 100 µg/mL (Escherichia coli [12]): 18 mm; zone of inhibition at 25 µg/mL (Klebsiella pneumoniae [13]): 5 mm; zone of inhibition at 50 µg/mL (Klebsiella pneumoniae [14]): 19 mm; zone of inhibition at 75 µg/mL (Klebsiella pneumoniae [15]): 14 mm; zone of inhibition at 100 µg/mL (Klebsiella pneumoniae [16]): 19 mm; zone of inhibition at 25 µg/mL (Fusarium oxysporum [29]): 13 mm; zone of inhibition at 50 µg/mL (Fusarium oxysporum [30]): 19 mm; zone of inhibition at 75 µg/mL (Fusarium oxysporum [31]): 25 mm; zone of inhibition at 100 µg/mL (Fusarium oxysporum [32]): 28 mm; MIC (Aspergillus niger [37]): 25 µg/mL (≈ 70 µM); MIC (Fusarium verticillioides [38]): 25 µg/mL (≈ 70 µM); MIC (Fusarium oxysporum [39]): 22 µg/mL (≈ 61.6 µM)
4 | Cc1cccc2nc(N/N=C/c3ccc(F)cc3F)sc12 | 5 | 8 | 11 | 15 | 7 | 10 | 13 | 15 | 10 | 13 | 16 | 19 | 17 | 24 | 29 | 30 | 18 | 23 | 28 | 33 | zone of inhibition at 25 µg/mL (Escherichia coli [9]): 4 mm; zone of inhibition at 50 µg/mL (Escherichia coli [10]): 7 mm; zone of inhibition at 75 µg/mL (Escherichia coli [11]): 11 mm; zone of inhibition at 100 µg/mL (Escherichia coli [12]): 14 mm; diameter of the inhibition zone (DIZ) (Klebsiella pneumoniae [13]): inactive; diameter of the inhibition zone (DIZ) (Klebsiella pneumoniae [14]): inactive; diameter of the inhibition zone (DIZ) (Klebsiella pneumoniae [15]): inactive; diameter of the inhibition zone (DIZ) (Klebsiella pneumoniae [16]): inactive; zone of inhibition at 25 µg/mL (Fusarium oxysporum [29]): 10 mm; zone of inhibition at 50 µg/mL (Fusarium oxysporum [30]): 13 mm; zone of inhibition at 75 µg/mL (Fusarium oxysporum [31]): 16 mm; zone of inhibition at 100 µg/mL (Fusarium oxysporum [32]): 20 mm; MIC (Klebsiella pneumoniae [33]): 22 µg/mL (≈ 72.5 µM); MIC (Staphylococcus aureus [34]): 23 µg/mL (≈ 75.8 µM); MIC (Bacillus subtilis [35]): 25 µg/mL (≈ 82.4 µM); MIC (Escherichia coli [36]): 24 µg/mL (≈ 79.1 µM); MIC (Aspergillus niger [37]): 26 µg/mL (≈ 85.7 µM); MIC (Fusarium verticillioides [38]): 20 µg/mL (≈ 65.9 µM); MIC (Fusarium oxysporum [39]): 18 µg/mL (≈ 59.3 µM)
